Results taken from ChEMBL document CHEMBL1201862, “PubChem BioAssay data set” (2004).
Calls of active or inactive are those of the source.

Tests used:
[1] = luciferase reporter signal suppression in cells – H4 neuroglioma cells, luminescence, dose response (AID 1990); type: functional, cell-based
[2] = luciferase reporter signal reduction – luminescence, H4-C neuroglioblastoma cells, dose response (AID 2458); type: functional, cell-based;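 note: H4 neuroglioblastoma cells stably carrying a luciferase reporter gene fusion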
cells = type: functional, cell-based
[3] = Luminescence Cell-Based Dose Response HTS to Identify Inhibitors of 5'UTR Stem-Loop Driven Prion Protein mRNA Translation in H4 Neuroglioblastoma Cells. [Related pubchem assays: 1827 (Project Summary), 1813 (Primary HTS)]; type: functional
[4] = alpha-synuclein stem-loop luciferase translation blockers – H4 neuroglioma cells, luminescence, confirmation (AID 1988); type: functional, cell-based
[5] = alpha-synuclein stem-loop translation blockers – luminescence, H4 neuroglioblastoma cells, dose confirmation, confirmation (AID 2454); type: functional, cell-based;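 note: H4 neuroglioblastoma cells carrying an alpha-synuclein 5'UTR luciferase reporter; potency for inhibition of the luciferase signal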
[6] = HEK-293T viability loss after treatment – luminescence, T-cell screen hits, cytotoxicity control for TCR NF-kB inhibitor project, dose response (AID 489026); type: functional, cell-based;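 note: cells exposed to compound about 14 hours before the viability readout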
Cytochrome P450 2C9 = Cytochrome P450 2C9 (Homo sapiens, UniProt P11712); conditions: Potency
[7] = Counterscreen for IDE inhibitors: Luminescence-based cell-based high throughput dose response assay to identify compounds that are cytotoxic to HEK cells. [Related pubchem assays: 434962 (Primary screen (IDE inhibitors in singlicate)), 449730 (Counterscreen (Cytotoxicity in triplicate)), 435028 (Confirmation (IDE inhibitors in triplicate)) …; type: functional; conditions: HEK293
Insulin-degrading enzyme = target: T1, Insulin-degrading enzyme (Homo sapiens, UniProt P14735); experiment: Dose Response: Fluorescence polarization-based cell-based high throughput dose response assay for inhibitors of insulin-degrading enzyme (IDE). [Related pubchem assays: 434962 (Primary screen (IDE inhibitors in singlicate)), 449730 (Counterscreen (Cytotoxicity in triplicate)), 435028 (Confirmation (IDE inhibitors in triplicate)), 434984 (Summary …; type: functional
T1 sequence (P14735 whole entry): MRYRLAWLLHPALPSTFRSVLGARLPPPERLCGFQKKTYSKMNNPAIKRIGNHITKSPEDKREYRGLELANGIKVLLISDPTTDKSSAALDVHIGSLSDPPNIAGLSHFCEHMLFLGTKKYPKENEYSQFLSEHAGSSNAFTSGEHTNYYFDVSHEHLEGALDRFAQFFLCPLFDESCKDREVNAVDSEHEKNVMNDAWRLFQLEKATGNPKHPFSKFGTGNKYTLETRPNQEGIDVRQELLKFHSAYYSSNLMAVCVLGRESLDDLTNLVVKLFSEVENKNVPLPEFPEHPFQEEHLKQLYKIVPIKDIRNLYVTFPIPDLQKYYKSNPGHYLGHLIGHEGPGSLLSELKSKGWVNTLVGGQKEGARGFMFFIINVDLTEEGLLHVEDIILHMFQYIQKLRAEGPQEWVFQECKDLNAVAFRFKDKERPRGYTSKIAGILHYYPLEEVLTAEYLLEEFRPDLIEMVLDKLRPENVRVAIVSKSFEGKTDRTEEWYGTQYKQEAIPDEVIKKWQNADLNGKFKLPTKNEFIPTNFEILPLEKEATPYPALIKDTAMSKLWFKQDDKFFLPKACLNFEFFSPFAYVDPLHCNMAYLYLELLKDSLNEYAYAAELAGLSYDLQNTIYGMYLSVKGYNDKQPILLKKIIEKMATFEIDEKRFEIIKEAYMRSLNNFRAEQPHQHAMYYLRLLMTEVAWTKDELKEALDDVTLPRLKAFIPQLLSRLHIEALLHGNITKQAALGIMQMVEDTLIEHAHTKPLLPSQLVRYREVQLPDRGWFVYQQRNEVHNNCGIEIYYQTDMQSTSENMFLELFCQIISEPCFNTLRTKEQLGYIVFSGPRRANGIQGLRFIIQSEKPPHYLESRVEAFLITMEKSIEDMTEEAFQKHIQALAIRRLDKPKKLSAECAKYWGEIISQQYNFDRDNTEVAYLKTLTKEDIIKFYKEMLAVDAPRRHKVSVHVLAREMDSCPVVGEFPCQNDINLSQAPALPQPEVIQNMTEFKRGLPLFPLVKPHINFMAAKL

Aspartyl aminopeptidase = target: T2, Aspartyl aminopeptidase (Plasmodium falciparum 3D7, UniProt Q8I2J3)
T2 sequence (Q8I2J3 whole entry): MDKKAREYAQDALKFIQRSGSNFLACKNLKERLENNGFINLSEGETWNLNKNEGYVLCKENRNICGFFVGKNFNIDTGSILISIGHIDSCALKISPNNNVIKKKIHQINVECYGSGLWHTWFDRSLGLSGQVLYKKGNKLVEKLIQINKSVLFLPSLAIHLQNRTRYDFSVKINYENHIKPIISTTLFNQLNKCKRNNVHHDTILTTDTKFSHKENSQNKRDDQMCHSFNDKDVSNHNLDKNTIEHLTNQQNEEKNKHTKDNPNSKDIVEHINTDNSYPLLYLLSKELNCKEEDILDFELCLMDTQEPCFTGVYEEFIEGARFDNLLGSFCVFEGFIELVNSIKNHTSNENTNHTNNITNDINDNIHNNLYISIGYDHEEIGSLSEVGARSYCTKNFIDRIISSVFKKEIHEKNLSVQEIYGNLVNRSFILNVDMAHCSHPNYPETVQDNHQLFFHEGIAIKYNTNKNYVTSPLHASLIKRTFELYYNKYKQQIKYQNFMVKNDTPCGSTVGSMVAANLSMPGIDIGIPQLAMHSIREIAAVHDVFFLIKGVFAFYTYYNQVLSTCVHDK

Procathepsin L = Procathepsin L (Homo sapiens, UniProt P07711)
[8] = target: Lysosomal acid glucosylceramidase (Homo sapiens, UniProt P04062); experiment: Dose response cell-based high throughput screening assay to identify enhancers of beta-glucosidase activity. [Related pubchem assays: 784 ]; type: functional
Large T antigen = Large T antigen (Simian virus 40, UniProt P03070); type: functional, Betapolyomavirus macacae;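 note: Confirmatory-stage PubChem screen for compounds that inhibit SV40 T antigen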
[9] = target: T3, Calpain-2 catalytic subunit (Sus scrofa, UniProt P43367); experiment: m-calpain protease blockers, concentration series – biochemical, fluorogenic peptide substrate, dose response (AID 1420); type: functional
T3 sequence (P43367 whole entry): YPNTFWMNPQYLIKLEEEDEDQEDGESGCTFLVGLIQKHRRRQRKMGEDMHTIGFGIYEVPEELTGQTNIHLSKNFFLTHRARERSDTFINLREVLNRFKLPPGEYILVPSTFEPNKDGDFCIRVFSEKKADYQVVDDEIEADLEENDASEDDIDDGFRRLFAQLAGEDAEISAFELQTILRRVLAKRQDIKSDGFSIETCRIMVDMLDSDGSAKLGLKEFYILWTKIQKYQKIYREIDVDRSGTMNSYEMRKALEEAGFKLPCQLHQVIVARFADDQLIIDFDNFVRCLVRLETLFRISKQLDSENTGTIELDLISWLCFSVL

[10] = target: T4, Histone-lysine N-methyltransferase NSD2 (Homo sapiens, UniProt O96028); type: biochemical
T4 sequence (O96028 whole entry): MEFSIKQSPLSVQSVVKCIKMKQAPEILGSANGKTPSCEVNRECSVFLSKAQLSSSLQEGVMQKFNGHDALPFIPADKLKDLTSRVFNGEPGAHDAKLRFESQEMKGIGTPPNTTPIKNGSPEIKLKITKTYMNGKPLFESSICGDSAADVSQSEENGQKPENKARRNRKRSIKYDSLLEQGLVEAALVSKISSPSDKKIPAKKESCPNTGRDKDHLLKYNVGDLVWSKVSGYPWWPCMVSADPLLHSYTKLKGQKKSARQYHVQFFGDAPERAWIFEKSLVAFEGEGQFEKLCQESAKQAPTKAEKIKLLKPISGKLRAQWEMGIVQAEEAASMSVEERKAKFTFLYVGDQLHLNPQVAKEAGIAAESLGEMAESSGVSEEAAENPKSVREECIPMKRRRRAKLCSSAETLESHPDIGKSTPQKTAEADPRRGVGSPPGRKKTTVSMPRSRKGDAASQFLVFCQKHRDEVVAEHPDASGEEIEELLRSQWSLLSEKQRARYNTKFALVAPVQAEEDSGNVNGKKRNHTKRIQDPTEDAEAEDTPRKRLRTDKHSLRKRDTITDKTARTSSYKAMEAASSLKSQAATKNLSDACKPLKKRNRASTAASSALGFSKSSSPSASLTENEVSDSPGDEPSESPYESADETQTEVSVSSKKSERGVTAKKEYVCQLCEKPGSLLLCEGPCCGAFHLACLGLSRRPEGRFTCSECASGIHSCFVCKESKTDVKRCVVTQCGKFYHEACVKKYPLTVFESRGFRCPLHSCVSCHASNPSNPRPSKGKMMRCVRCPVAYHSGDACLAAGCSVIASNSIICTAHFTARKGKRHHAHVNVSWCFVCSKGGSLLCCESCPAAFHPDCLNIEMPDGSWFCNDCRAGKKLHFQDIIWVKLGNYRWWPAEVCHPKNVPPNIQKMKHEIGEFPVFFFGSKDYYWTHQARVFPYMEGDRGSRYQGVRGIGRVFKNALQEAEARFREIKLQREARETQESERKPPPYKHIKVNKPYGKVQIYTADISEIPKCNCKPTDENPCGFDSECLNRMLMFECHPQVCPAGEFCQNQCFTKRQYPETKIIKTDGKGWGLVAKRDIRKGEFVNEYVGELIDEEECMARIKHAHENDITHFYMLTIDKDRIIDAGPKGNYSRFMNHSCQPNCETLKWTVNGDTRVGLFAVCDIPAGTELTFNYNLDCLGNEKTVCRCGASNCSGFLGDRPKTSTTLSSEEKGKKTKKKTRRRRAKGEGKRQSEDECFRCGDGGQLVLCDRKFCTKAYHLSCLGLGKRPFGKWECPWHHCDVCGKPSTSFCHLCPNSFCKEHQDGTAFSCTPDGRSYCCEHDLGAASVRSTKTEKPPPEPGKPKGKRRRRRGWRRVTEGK

[11] = target: T5, Eukaryotic translation initiation factor 2-alpha kinase 3 (Homo sapiens, UniProt Q9NZJ5); experiment: Dose response cell-based high-throughput screening assay to measure PERK inhibition. [Related pubchem assays: 1416 ]; type: functional
T5 sequence (Q9NZJ5 whole entry): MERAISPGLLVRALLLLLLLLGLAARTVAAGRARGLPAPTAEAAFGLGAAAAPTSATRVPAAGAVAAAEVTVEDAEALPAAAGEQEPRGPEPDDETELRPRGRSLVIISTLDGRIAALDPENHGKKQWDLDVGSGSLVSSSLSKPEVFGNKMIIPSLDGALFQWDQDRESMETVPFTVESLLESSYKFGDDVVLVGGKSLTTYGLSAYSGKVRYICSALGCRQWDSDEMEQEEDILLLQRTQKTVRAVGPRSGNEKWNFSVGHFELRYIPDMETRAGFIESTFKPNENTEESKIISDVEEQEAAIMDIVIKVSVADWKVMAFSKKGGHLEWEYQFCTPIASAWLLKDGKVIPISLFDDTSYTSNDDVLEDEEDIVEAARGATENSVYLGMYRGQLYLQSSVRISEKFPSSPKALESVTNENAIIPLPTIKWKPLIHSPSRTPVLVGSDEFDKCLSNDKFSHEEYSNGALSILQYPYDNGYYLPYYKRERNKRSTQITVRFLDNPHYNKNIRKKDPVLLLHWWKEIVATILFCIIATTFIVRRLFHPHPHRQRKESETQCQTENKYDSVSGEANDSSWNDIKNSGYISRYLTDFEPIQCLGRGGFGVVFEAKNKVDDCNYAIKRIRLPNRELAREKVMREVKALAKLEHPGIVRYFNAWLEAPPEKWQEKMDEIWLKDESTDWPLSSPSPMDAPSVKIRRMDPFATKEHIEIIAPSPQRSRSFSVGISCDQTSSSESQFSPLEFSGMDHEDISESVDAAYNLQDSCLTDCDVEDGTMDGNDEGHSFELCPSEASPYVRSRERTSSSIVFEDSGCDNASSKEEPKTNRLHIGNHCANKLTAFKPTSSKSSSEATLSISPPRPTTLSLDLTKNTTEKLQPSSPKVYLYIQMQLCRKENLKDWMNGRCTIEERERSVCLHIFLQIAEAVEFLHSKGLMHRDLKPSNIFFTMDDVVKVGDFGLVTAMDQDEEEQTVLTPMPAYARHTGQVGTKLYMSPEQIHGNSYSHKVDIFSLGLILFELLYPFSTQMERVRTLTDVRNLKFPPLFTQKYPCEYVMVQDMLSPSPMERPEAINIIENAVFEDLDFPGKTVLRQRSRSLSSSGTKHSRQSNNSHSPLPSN

[12] = target: T5, Eukaryotic translation initiation factor 2-alpha kinase 3; experiment: Counterscreen assay for PERK inhibitors: Dose response cell-based high throughput screening assay to measure inhibition of PERK at 6 hours. [Related pubchem assays: 1522, 1416 ]; type: functional

Cytochrome P450 2C9, sequence (P11712 whole entry): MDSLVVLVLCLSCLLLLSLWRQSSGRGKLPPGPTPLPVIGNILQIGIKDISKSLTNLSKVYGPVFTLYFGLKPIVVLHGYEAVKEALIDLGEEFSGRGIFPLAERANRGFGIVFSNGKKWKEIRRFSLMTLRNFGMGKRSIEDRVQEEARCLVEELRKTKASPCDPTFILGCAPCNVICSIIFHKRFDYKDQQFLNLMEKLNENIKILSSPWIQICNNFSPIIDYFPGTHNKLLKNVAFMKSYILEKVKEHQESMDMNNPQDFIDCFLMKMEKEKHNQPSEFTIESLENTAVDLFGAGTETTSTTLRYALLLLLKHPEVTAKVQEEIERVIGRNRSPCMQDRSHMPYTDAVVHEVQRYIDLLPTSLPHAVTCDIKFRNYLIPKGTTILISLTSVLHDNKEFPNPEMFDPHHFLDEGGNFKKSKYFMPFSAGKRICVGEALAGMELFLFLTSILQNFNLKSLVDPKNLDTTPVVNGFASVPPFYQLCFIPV
Procathepsin L, sequence (P07711 whole entry): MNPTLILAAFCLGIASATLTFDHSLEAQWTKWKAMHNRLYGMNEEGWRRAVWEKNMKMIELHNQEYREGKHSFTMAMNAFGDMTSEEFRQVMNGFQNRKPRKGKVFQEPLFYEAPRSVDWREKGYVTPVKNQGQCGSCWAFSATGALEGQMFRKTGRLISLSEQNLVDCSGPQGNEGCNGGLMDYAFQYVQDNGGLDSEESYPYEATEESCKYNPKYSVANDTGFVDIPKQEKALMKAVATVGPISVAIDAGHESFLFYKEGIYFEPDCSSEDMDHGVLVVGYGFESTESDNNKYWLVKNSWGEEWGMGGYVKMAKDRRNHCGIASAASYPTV
Lysosomal acid glucosylceramidase, sequence (P04062 whole entry): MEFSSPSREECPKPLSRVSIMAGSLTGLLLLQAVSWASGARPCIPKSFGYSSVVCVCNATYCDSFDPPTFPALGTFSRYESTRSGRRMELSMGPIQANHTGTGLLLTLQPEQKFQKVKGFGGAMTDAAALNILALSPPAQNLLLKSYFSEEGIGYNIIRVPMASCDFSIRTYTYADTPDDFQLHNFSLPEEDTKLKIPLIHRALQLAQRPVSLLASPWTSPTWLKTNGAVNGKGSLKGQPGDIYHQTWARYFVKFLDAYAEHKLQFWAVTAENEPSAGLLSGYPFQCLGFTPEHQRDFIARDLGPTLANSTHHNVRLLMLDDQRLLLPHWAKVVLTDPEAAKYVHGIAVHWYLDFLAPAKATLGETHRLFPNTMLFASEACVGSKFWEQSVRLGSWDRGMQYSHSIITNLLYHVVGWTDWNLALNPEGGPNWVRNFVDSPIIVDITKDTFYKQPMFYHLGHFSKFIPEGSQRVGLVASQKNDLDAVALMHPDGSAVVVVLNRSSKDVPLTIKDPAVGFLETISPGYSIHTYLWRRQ
Large T antigen, sequence (P03070 whole entry): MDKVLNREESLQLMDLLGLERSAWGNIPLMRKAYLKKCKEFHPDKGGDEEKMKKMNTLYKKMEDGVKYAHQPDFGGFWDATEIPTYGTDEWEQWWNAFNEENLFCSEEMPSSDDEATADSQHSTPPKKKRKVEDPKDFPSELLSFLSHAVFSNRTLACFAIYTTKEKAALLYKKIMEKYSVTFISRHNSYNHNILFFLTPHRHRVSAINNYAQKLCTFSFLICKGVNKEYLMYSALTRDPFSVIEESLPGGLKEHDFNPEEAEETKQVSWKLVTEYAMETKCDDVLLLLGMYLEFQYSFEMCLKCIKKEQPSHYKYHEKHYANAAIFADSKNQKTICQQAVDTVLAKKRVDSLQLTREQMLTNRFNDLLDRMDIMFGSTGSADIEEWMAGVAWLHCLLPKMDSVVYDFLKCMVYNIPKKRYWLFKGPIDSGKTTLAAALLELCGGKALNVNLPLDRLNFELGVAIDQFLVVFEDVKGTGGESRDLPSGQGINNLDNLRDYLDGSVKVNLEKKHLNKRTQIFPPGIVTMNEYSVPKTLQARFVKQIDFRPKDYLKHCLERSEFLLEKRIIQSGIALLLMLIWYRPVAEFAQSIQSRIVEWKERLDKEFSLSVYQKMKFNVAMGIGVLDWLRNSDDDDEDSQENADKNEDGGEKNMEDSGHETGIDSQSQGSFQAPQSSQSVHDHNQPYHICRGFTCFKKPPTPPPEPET

CC1=C([N+](=O)[O-])C(c2ccccc2)C2=C(O)c3ccccc3C2=N1 (centres undefined)
EC50 [1]: 7.36 µM (active) | EC50 [2]: > 12 µM (not active) | EC50 (cells): > 12 µM (not active) | EC50 [3]: 4.95 µM (active) | EC50 [4]: < 0.1 µM (active) | EC50 [5]: 4.09 µM (active) | IC50 [6]: 58.8 µM (inactive)

CC(C)C[C@@H](CC(=O)N[C@@H](CCCN)CC(=O)N[C@@H]1CCNC[C@H]1C(=O)N[C@H](CC(=O)N[C@@H](CCC(=O)O)CC(=O)O)Cc1c[nH]c2ccccc12)NC(=O)[C@@H]1CCCC[C@H]1N
AC50 (Cytochrome P450 2C9): 31.6 µM (inconclusive)

Cc1c(-c2cccc(Cl)c2)nc2ccccc2c1C(=O)OCC(=O)N(C)C1CCS(=O)(=O)C1 (centres undefined)
IC50 [7]: 36.1 µM (not active) | IC50 (Insulin-degrading enzyme): > 55.9 µM (not active)

O=C1/C(=C/Nn2cnnc2)c2ccccc2C(=O)N1c1ccccc1
IC50 (Aspartyl aminopeptidase): 1.86 µM (active) | IC50 (Procathepsin L): > 59.6 µM (not active)

CCOC(=O)N1CCN(C(=O)c2ccc3c(=O)n(Cc4ccccc4)c(=S)[nH]c3c2)CC1
EC50 [8]: > 10 µM (not active)

Cc1cccn2c(=O)c3cc(C(=O)NCCCn4ccnc4)n(C)c3nc12
EC50 [8]: > 10 µM (not active)

CN1CCC/C1=C/C=C1\SC(=S)NC1=O
IC50 [7]: > 55.6 µM (not active) | IC50 (Large T antigen): 30.2 µM (active) | IC50 [9]: 13.4 µM (not active) | IC50 (Insulin-degrading enzyme): 8.16 µM (active) | AC50 [10]: > 20 µM (inactive)

COC(=O)CN(n1cnnc1)S(=O)(=O)c1ccccc1Cl
IC50 (Aspartyl aminopeptidase): 0.381 µM (active) | IC50 (Procathepsin L): > 59.6 µM (not active)

C=C(C)C(O)/C=C/c1ccc(C)cc1 (centres undefined)
AC50 (Cytochrome P450 2C9): 3.16 µM (inconclusive)

Cc1ccc2cc(/C=N/Nc3nc4ccccc4[nH]3)c(Cl)nc2c1
EC50 [11]: > 55.7 µM (not active) | EC50 [12]: > 55.7 µM (not active)
